70 compounds from PubChem BioAssay AID977622 (Broad Institute, 2014) can be followed below.

The test system of assay [1] is E. coli h38 humanized mutant ribosome RFP fluorescence, mixed culture, 24 h. Nature of the assay: wild-type E. coli growth inhibition versus h38 humanized strain – h38 mutant RFP, wild-type GFP, cherry-pick, dose response (AID 977622). Conditions: measured here: h38 humanized mutant RFP strain.
In assay [2] the test system is E. coli WT ribosome GFP fluorescence, mixed culture, 24 h. The description is as above.
The mark [3] stands for this setting: E. coli mixed culture, 24 h, measured here: total growth OD600.

Each structure is given as a SMILES string. Results filed as inconclusive are left out. Activity calls are given as the source filed them.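 The calls were made as follows: active = Green signal of the normal strain falls at least twice as much as red signal of the resistant mutant, with overall culture growth loss under a set limit; inconclusive = no clear call, values can overlap the other calls; inactive = the rest.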 Bounds are passed on as bounds.

What is called AC50 is the concentration giving half of the maximal activity seen.

For `NC(=O)c1cccnc1Oc1ccc(Cl)cc1Cl`, the AC50 in assay [1] was over 100 µM; in assay [2], > 100 µM (inactive). With `C[C@H]1CN([C@@H](C)CO)C(=O)c2c(c3ccccc3n2C)-c2ccccc2CO[C@@H]1CN(C)Cc1ccncc1`, the AC50 in assay [1] is over 100 µM.

As for `Cc1ccccc1-c1cc(C(=O)NCc2cccs2)n(CC2CC(c3cccnc3)=NO2)n1` (configuration not stated), the AC50 in assay [1] is over 100 µM; in assay [2], > 100 µM (inactive).

In the case of `CN(C)S(=O)(=O)N1CCN(c2ccccc2Cl)CC1`, the AC50 in assay [1] and in assay [2] (setting [3]) was over 100 µM throughout. `O=C(Nc1ccc(C(=O)c2ccccc2)cc1)c1ccccc1` displayed an AC50 in assay [1] of over 100 µM. As for `O=C(O)CSc1nnc(-c2ccc(Cl)cc2Cl)n1-c1ccc(Br)cc1`, the AC50 is over 100 µM in assay [1], > 100 µM (inactive) in assay [2] and over 100 µM in assay [2] (setting [3]). Take `COc1ccc(NC(=O)CCS(=O)(=O)c2ccccc2Cl)cc1S(=O)(=O)Nc1ccc(Cl)cc1`: the concentration at half-maximal activity (AC50) is over 100 µM in assay [1], > 100 µM (inactive) in assay [2] and over 100 µM in assay [2] (setting [3]). Take `Cc1cc(SCC(=O)c2cccs2)n2nc(C)c(-c3ccc(Cl)cc3)c2n1`: in assay [1], the AC50 is over 100 µM.

On to `CN(C)CCCN(C(=O)CCOc1ccccc1)c1nc2c(F)cccc2s1`, for which the AC50 in assay [1] is over 100 µM. On the same count and under the same terms, the value for `CC(C)=C(c1ccc(Cl)cc1)c1c(N)ncnc1N` was over 100 µM; that for `Cc1ccccc1S(=O)(=O)N1C[C@H]2CON(C)[C@H]2C[C@H]1c1cccc(-c2ccc(C#N)cc2)c1` was over 100 µM. As for `CS(=O)(=O)c1ccc(Cl)c(NC(=O)CSc2nncn2-c2ccccc2)c1`, the AC50 in assay [1] was over 100 µM; in assay [2], > 100 µM (inactive).

Consider `NS(=O)(=O)c1cccc(NC(=O)CSc2nc3ccccc3n2-c2ccccc2)c1`, for which the AC50 in assay [1] was over 100 µM; in assay [2] it was > 100 µM (inactive); in assay [2] (setting [3]), 36 µM. As to `COc1ccc2oc(C)c(C(=O)c3ccccc3)c2c1`, the AC50 in assay [1] was over 100 µM; in assay [2] it was > 100 µM (inactive); in assay [2] (setting [3]), 48.5 µM.

For the compound `COc1ccccc1NC(=O)COC(=O)Cc1c[nH]c2ccccc12`, the AC50 in assay [1] and in assay [2] (setting [3]) was over 100 µM in each case. For the compound `CCc1cccc(NC(=O)CN(C)S(=O)(=O)c2cccc3cccnc23)c1`, the AC50 in assay [1] was over 100 µM; in assay [2] it was > 100 µM (inactive). Take `CC(C)n1nnnc1C1c2ccccc2C(=O)N1CCOc1ccccc1` (configuration not stated): the AC50 in assay [1] is 3.86 µM; in assay [2] (setting [3]), over 100 µM. On the same counts, the results for `Cc1ccc(C(=O)Nc2cccc3[nH]c(C(F)(F)F)nc23)cc1` are over 100 µM and over 100 µM.

Turning to `O=S(=O)(Nc1ccc(-c2cnco2)cc1)c1ccccc1`, the AC50 in assay [1] was over 100 µM; in assay [2], > 100 µM (inactive). On to `O=C(c1cccs1)c1c[nH]cc1-c1ccccc1`, for which the AC50 in assay [1] and in assay [2] (setting [3]) was over 100 µM throughout. Consider `O=C(c1cccc2ccccc12)C1CCCN(C(=O)CCc2cnccn2)C1` (configuration not stated), for which the AC50 in assay [1] and in assay [2] (setting [3]) was over 100 µM throughout. In the case of `CCOc1ccc(C(C)=O)cc1CN1C(=O)NC2(CCCCCCC2)C1=O`, in assay [1], the AC50 was over 100 µM. Consider `Cc1onc(-c2ccccc2Cl)c1C(=O)N1CCN(Cc2ccc3c(c2)OCO3)CC1`, for which the AC50 in assay [1] and in assay [2] (setting [3]) was over 100 µM throughout. Turning to `C[C@@H]1CCCCO[C@H](CN(C)CC2CC2)[C@H](C)CN([C@@H](C)CO)C(=O)c2cc(NC(=O)Nc3cccc4ccccc34)ccc2O1`, the AC50 was 43.2 µM in assay [1], > 52 µM (inactive) in assay [2] and 32.4 µM in assay [2] (setting [3]). On the same counts, the results for `CC(C)(C)S(=O)(=O)Cc1nc(-c2ccc(Cl)c(Cl)c2)cs1` are over 100 µM, > 100 µM (inactive) and over 100 µM. In turn, `Cc1ccccc1CSCC(=O)Nc1ccccc1F` showed an AC50 in assay [1] of over 100 µM. The same measure, in the same setting: the value for `CN1C(=O)c2cc(NC(=O)c3cccc(F)c3)ccc2OC[C@H]2O[C@@H](CC(=O)NCC3CCCCC3)CC[C@@H]21` was over 100 µM.

In the case of `COc1cccc(NC(=O)C2CCC(CNS(=O)(=O)c3cccs3)CC2)c1` (configuration not stated), the AC50 was over 100 µM in assay [1] and > 100 µM (inactive) in assay [2].

On to `O=C(NCc1ccccc1)C1C(=O)Nc2ccccc2C(=O)N1c1ccc2c(c1)OCCO2` (configuration not stated), for which the AC50 in assay [1] was over 100 µM; in assay [2], > 100 µM (inactive). In the case of `CCc1cc2cc(OC)ccc2nc1SCC(=O)Nc1cc(OC)c(OC)cc1C(=O)O`, the AC50 in assay [1] was over 100 µM; in assay [2] it was > 100 µM (inactive); in assay [2] (setting [3]), 36.3 µM. Consider `COc1ccc(CN2C(=O)NC(C)(c3ccc(C)cc3)C2=O)cc1F` (configuration not stated), for which the AC50 in assay [1] is over 100 µM; in assay [2], > 100 µM (inactive). On the same counts, the results for `N#Cc1cccc(-c2ccc3c(c2)[C@@H]2[C@@H](CCN2S(=O)(=O)c2cccc(F)c2)[C@H](CO)N3)c1` are over 100 µM and > 100 µM (inactive). In the case of `Cc1cccc(Nc2nc(-c3ccc(F)cc3)cs2)n1`, the AC50 was over 100 µM in assay [1], > 100 µM (inactive) in assay [2] and over 100 µM in assay [2] (setting [3]). With `O=C(Nc1ccncc1)c1ccc(S(=O)(=O)Nc2ccccc2)cc1`, the values for the AC50 in assay [1] and in assay [2] were over 100 µM and > 100 µM (inactive), respectively.

`CC(=O)Nc1cccc(OCc2ccc([N+](=O)[O-])cc2)c1`: the AC50 in assay [1] was over 100 µM. For the compound `CCCc1c(C(=O)Nc2ccc(OC)cc2)cnn1-c1ccccc1`, the results for the AC50 in assay [1] and in assay [2] were 9.68 µM and > 100 µM (inactive), respectively. As to `CCC1(CC)NC(=O)N(CC(=O)N2N=C(c3ccc(Cl)cc3)CC2c2ccco2)C1=O` (configuration not stated), the AC50 in assay [1] and in assay [2] (setting [3]) was over 100 µM throughout.

As for `O=C(CCNC(=O)c1ccco1)Nc1cccc(Br)c1`, the values for the AC50 in assay [2] and in assay [2] (setting [3]) were > 100 µM (inactive) and over 100 µM, respectively.

For `CCc1ccc2[nH]c(C(=O)Nc3ccc4c(c3)OCO4)cc2c1`, the AC50 in assay [2] is > 100 µM (inactive). Still for that read-out and setting: next, `O=C(Cn1c(CO)nc2ccccc21)NCCc1ccc(F)cc1`: > 100 µM (inactive). For `COc1ccc(NC(=O)Nc2cccc3c2O[C@@H](CN(C)S(=O)(=O)c2ccc(Cl)cc2)[C@@H](C)CN([C@@H](C)CO)C3=O)cc1`, the AC50 was > 100 µM (inactive) in assay [2] and 47.3 µM in assay [2] (setting [3]). `C[C@]12C(=O)N(c3ccc(F)cc3)C(=O)N1[C@@H]1c3ccccc3OC[C@@H]1[C@H]2c1ccccc1` came in with an AC50 in assay [2] (setting [3]) of over 100 µM. `COC(=O)c1ccc(OS(=O)(=O)c2ccc(NC(C)=O)cc2)cc1`: in assay [2], the AC50 is > 100 µM (inactive). The compound `O=S(=O)(NOCc1ccc(Cl)cc1)c1ccc(Cl)cc1` came in with an AC50 in assay [1] of 52 µM. As for `Cc1cc(-c2ccc(C)c(S(=O)(=O)NC(C)Cc3ccco3)c2)on1` (configuration not stated), the figures for the AC50 in assay [2] and in assay [2] (setting [3]) were > 100 µM (inactive) and 46.2 µM, respectively. `Cc1ccc(-n2cc(CNCCN3CCOC3=O)c(-c3ccc(F)cc3)n2)cc1` had an AC50 in assay [2] (setting [3]) of over 100 µM. For the compound `COc1ccccc1CNC(=O)CN1C(=O)NC(c2ccccc2)(c2ccccc2)C1=O`, the AC50 in assay [2] was > 100 µM (inactive). Turning to `O=C(NCCc1ccc(O)cc1)c1[nH]c(C(F)(F)F)nc1-c1ccccc1`, the AC50 in assay [2] was > 100 µM (inactive); in assay [2] (setting [3]), over 100 µM. On to `CCCN(CC1CC1)C(=O)CSc1ncnc2sccc12`, for which the AC50 in assay [2] is > 100 µM (inactive).

For `COc1ccc(C(=O)CSc2nc3ccccc3n2CC(=O)c2ccccc2)cc1`, the AC50 in assay [2] was > 100 µM (inactive). Regarding `O=c1[nH]c(C2CCCN(S(=O)(=O)c3ccccc3Cl)C2)nc2c1nnn2Cc1ccc2c(c1)OCCO2` (configuration not stated), the AC50 in assay [2] is > 100 µM (inactive). Same read-out and setting: the value for `COc1ccc(OC)c(N(CC(=O)Nc2ccccc2F)S(=O)(=O)c2ccccc2)c1` was > 100 µM (inactive). As for `Cc1nc(-c2ccc([N+](=O)[O-])cc2)c(-c2ccccc2)o1`, the values for the AC50 in assay [2] and in assay [2] (setting [3]) were > 100 µM (inactive) and over 100 µM, respectively. In assay [2] (setting [3]), `COc1ccc(C#Cc2ccc([C@@H]3[C@@H](CO)N4CCCCN(C(=O)Nc5ccc(F)cc5)C[C@H]34)cc2)cc1` yielded an AC50 of 50.6 µM. As for `O=C1C(c2ccccc2)c2ccccc2N1Cc1ccccc1` (configuration not stated), the AC50 in assay [2] is > 100 µM (inactive). On to `CC(=O)Nc1cccc2c1Cc1cc([N+](=O)[O-])ccc1-2`, for which the AC50 in assay [2] was > 100 µM (inactive). Turning to `COC(=O)c1ccc(CCc2cc(O)c(Br)cc2O)cc1`, in assay [2] (setting [3]), the AC50 came to 46.5 µM. Consider `Cc1cc(C(=O)NCCC2=CCCCC2)ccc1[N+](=O)[O-]`, for which the AC50 was > 100 µM (inactive) in assay [2] and over 100 µM in assay [2] (setting [3]). As to `CN1c2ccc(C#Cc3cccnc3)cc2[C@@H]2[C@@H](CCN2C(=O)c2cccc(F)c2)[C@H]1CO`, the AC50 in assay [2] was > 100 µM (inactive). On to `COc1ccccc1NS(=O)(=O)c1cc(C(=O)Nc2ccc(S(=O)(=O)Nc3onc(C)c3C)cc2)ccc1C`, for which, in assay [2], the AC50 was > 100 µM (inactive). In the case of `C[C@@H]1CN([C@H](C)CO)C(=O)CCCn2nncc2CO[C@@H]1CN(C)C(=O)Nc1ccc(C(F)(F)F)cc1`, in assay [2], the AC50 is > 100 µM (inactive). As to `O=C(NCc1ccc2c(c1)OCO2)C1CCCN1S(=O)(=O)c1ccc(Cl)cc1` (configuration not stated), the AC50 in assay [2] is > 100 µM (inactive).

Take `O=C(CSc1nnc(COc2cccc3cccnc23)o1)c1ccc(F)cc1`: the AC50 in assay [2] (setting [3]) is over 100 µM. Same read-out and setting: next, `O=C(NCc1ccccc1)c1ccc(-c2cn[nH]c2)c2ccoc12`: over 100 µM. Regarding `COC(=O)C[C@H]1C[C@@H]2c3cc(NC(=O)Nc4ccc(C(F)(F)F)cc4)ccc3O[C@@H]2[C@H](CO)O1`, the AC50 in assay [2] is > 100 µM (inactive); in assay [2] (setting [3]), over 100 µM. Regarding `Cc1cccc(Oc2ccc(NC(=O)c3ccccc3C(=O)O)cc2)c1`, the AC50 in assay [2] (setting [3]) is over 100 µM. Take `O=C(O)c1ccc2c(c1)N(Cc1ccc(F)cc1)C(=O)c1ccccc1S2`: in assay [2], the AC50 was > 100 µM (inactive). As to `Cc1onc(-c2ccccc2Cl)c1C(=O)OCC(=O)c1ccccc1`, the AC50 in assay [2] (setting [3]) was over 100 µM. Turning to `Cc1cccc(NC(=O)c2c(C)nn(-c3ccccc3)c2Cl)c1`, in assay [2], the AC50 is > 100 µM (inactive). In assay [1], `COc1cccc(-c2ccc(NC(=O)C3CCCN(Cc4cnn(C(C)C)c4)C3)cc2)c1` (configuration not stated) had an AC50 of over 100 µM.
